Test results as given in patent US20080027052A1, “METHODS FOR TREATING CYSTIC KIDNEY DISEASE” (priority 2006, published 2008).

Experiments:
Assay type in all cases: in vivo
[1] = tested on: male Cy/+ rat; test: Blood laboratory values in male Cy/+ rats treated from week 20; settings: for BUN / Calcium / Phosphorus / PTH: 38 week time point, treatment from week 20; for PTH: Compound A 0.05% w/w in chow, 3% Ca gluconate in water, mean ± SD
Text: (§1) The Cy rat is a Han:SPRD rat with a spontaneous genetic mutation called Cy. These animals develop progressive kidney disease due to the formation of multiple kidney tubule cysts that arise from both the proximal and later the distal tubule. The colony of rats has been maintained through successive breeding of two heterozygous Cy/+ rats. This is an autosomal dominant gene, such that at birth, ¼ of the animals are normal, ½ are heterozygotes (Cy/+) and ¼ are homozygotes (Cy/Cy). Homozygotes (Cy/Cy) of either sex are easily identified after approximately 10 days of age by abdominal palpation and elevations in blood urea nitrogen (BUN), a finding used to verify parental heterozygosity for PKD. Homozygous Cy/Cy rats develop massively enlarged kidneys and severe azotemia and die by 4 weeks of age. Heterozygote male animals develop progressive chronic kidney disease (CKD) with rise in blood urea nitrogen (BUN) by 10 weeks and death from uremia by 40-50 weeks. Heterozygote female animals develop progressive CKD with rise in BUN not detected until 20 weeks, with death at 80 weeks. […] Average food intake was 50 g/kg/day. At the time of sacrifice, rats were anesthetized with sodium pentobarbitol ([…], i.p.) and weighed. Blood was obtained for determination of serum creatinine, BUN, intact PTH, Ca and PO4. The left kidney was removed, weighed and frozen in liquid nitrogen for subsequent batch analyses. The right kidney was perfusion fixed with 4% paraformaldehyde in phosphate buffer (ph 7.4). The tissue was embedded in paraffin for histological studies. Cyst volume density was determined by point count stereology from randomly selected fields from hematoxylin and cosin (H&E) stained slides. Fibrosis was graded semi-quantitatively (scored 0-4+) from picrosirius red stained slides. The reviewer was blinded to the treatment group. Both measure were also standardized by body weight (for cyst volume) or kidney weight (for fibrosis). Plasma urea and creatinine were determined using colorimetric assays (Urea-Sigma 640 creatinine kit). Intact PTH was determined by ELISA; Alpacoa, and Ca and PO4 were done with using colorimeteric analyses (Sigma). Cy−/+ (cystic) male rats were assigned to one of four treatment groups (Table 5) and were phenotyped (by BUN) at 10 weeks and again at 20 weeks to ensure animals were cystic. […] Comparator groups included Compound A with calcium in the drinking water versus calcium alone. These comparator groups allow differentiation of the effects of changes in PTH and calcium from a direct action of the calcimimetic. FIG. 1 schematically represents the study design. At 10 weeks, animals were phenotyped. At 20 weeks, animals were started on the treatment arm. Half the animals were sacrificed at 34 weeks, half the animals were sacrificed 38 weeks. At each time point, samples from 8 animals were perfusion fixed with paraformaldehyde for CT scan, bone histology and aorta histology, samples from 8 animals were saline perfused for HCl extraction to determine calcium and phosphate content, and blood samples from 16 animals were collected for blood tests (PTH, calcium, phosphorus, BUN). Animals in the paraformaldehyde fixation group received tetracycline administration four and one week prior to sacrifice to label the bone for morphometric analyses. For the purpose of this application, only the laboratory and kidney end points will be presented. All data was analyzed by a statistician. The BUN was analyzed only at week 20 and end point (week 34 or 38) and was analyzed by ANCOVA adjusting for baseline (week 20) values. The PTH, calcium, and phosphorus were analyzed at baseline (week 20), a mid point, and end point (week 34, 38). These values were compared by a mixed model adjusting for baseline values and time point. The kidney assessments were only measured at end point at the time of sacrifice, and therefore the measures were compared by ANCOVA and within group comparisons.

[2] = tested on: male Cy/+ rat; test: Kidney assessment (cyst volume, fibrosis, kidney weight, histology) in male Cy/+ rats; settings: for Cyst Vol / Cyst Vol as a % of BW / Total Kidney weight: at sacrifice; for Cyst Vol / Cyst Vol as a % of BW / Total Kidney weight / Fibrosis Score: n = 7-8, mean ± SD; for Histologic appearance of the cysts (FIG. 7): representative kidney sections, compared with control cystic animals; for Fibrosis Score: semi-quantitative score 0-4+, picrosirius red
Text: as §1, with “fibrosis). Four micron transverse tissue section of the kidney, including cortex” for “fibrosis). Plasma urea”, “and medulla, was stained with hematoxylin-cosin. Five fields/sections, from cortex through outer medulla,” for “and creatinine”, “were evaluated for the degree of cystic change. Other sections were stained with picrosirius red for the evaluation of fibrosis. Fibrosis” for “were determined using colorimetric assays (Urea-Sigma 640 creatinine kit). Intact PTH”, “was scored (0-4+) for the relative amount of collagen within the interstitium from picrosirius red staining of collagen fibers. These assessments are the standard methods used to assess response to therapy in animal models of kidney disease (Gattone et al, Nature Medicine 9: 1323-6, 2003).” for “was determined by ELISA; Alpacoa, and Ca and PO4 were done with using colorimeteric analyses (Sigma).”, “values. […]” for “values. The PTH, calcium, and phosphorus were analyzed at baseline (week 20), a mid point, and end point (week 34, 38). These values were compared by a mixed model adjusting for baseline values and time point. The kidney assessments were only measured at end point at the time of sacrifice, and therefore the measures were compared by ANCOVA and within group comparisons.”

[3] = tested on: male Cy/+ rat; test: as above; settings: ANOVA with post group comparisons, all p<0.01, HCl

Compound | BUN [1] [mg/dL] | Calcium [1] [mg/dL] | Phosphorus [1] [mg/dL] | PTH [1] [pg/mL] | Change in BUN (week 20 to week 38) = Delta BUN [1] [mg/dL] | Cyst Vol [2] [cc] | Cyst Vol as a % of BW [2] [%] | Total Kidney weight [2] [g] | Histologic appearance of the cysts (FIG. 7) [2] | Fibrosis Score [2] | Cyst volume and fibrosis compared to control (FIGS. 3-6) [3] | Cyst volume and fibrosis compared to control (FIGS. 3-6) ([3]; listed as compound A)
O=C([O-])[C@H](O)[C@@H](O)[C@H](O)[C@H](O)CO.O=C([O-])[C@H](O)[C@@H](O)[C@H](O)[C@H](O)CO.[Ca+2] [Ca alone, reference compound] | 69 ± 18 | 11.2 ± 1.5 | 4.3 ± 0.8 | 39 ± 23 | 27 ± 11 | 4.0 ± 0.9 | 0.9 ± 0.2 | 10.1 ± 1.4 | cysts are a little smaller than control animals but there appears to be a similar number | 2.8 ± 0.2 | – | –
COc1cccc([C@@H](C)NCCCc2ccccc2Cl)c1.Cl [Compound A, N-(3-[2-chlorophenyl]-propyl)-R-α-methyl-3-methoxybenzylamine HCl] | 79 ± 21 | 8.2 ± 1.5 | 5.9 ± 1.4 | 131 ± 156 | 31 ± 15 | 3.1 ± 0.55 | 0.6 ± 0.1 | 9.5 ± 1.4 | noticeable decrease in cyst size and number | 2.6 ± 0.2 | reduces cyst volume and fibrosis | magnitude was significantly greater
